Reference: US9511016B2, “Topical composition for treating pain” (EpicentRx, Inc., priority 2007, dated 2016)
Values joined by “and” are separate entries in the source; they are usually repeats but may differ in a detail not shown here. Equal entries are not always repeated.

What was measured:
Human Patient with Pain = experiment: Topical treatment of human patients with pain: pain level (x/10), mobility, duration; assay type: in vivo; conditions: for Observation: mobility: Table 5 patient 10, neck pain 5/10; for Mobility / stiffness after application: patient and treated site of the example or table row cited
Human Patient = experiment: Systemic effects in human patients after application: breathing, peak expiratory flow, appetite, alertness; assay type: in vivo; conditions: patient of the example or table row cited
Text: Pluronic gel 20% with lecithin soya/isopropyl myristate was applied to stomach and abdominal wall.

[1] = Table 7: neck pain and stiffness
[2] = Table 7: sacroiliac strain, bilateral sacroilitis
[3] = Table 7: sacroiliac strain, bilateral sacroilitis, listed as Albuterol inhaler
[4] = Table 7: back, leg, joint, hip, toe, knee pain
[5] = Ex.27, clonidine then nitropaste
[6] = Table 7: compression fracture of vertebra
[7] = Table 7: patellofemoral syndrome

CC(C)(C)NCC(O)c1ccc(O)c(CO)c1 (centres unmarked) [albuterol inhaler, albuterol]
Pain level (Human Patient with Pain; Ex.34 V(a) left heel (no gel), initial 8/10, inhalers in series): 6/10 | Pain level (Human Patient with Pain; Ex.34 V(a) left heel, albuterol inhaler given again (from 5/10)): 3/10 | Pain level (Human Patient with Pain; Ex.34 V(a) right heel (PLO gel applied here), initial 8/10, then inhalers in series): 4/10 | Pain level (Human Patient with Pain; Ex.34 V(a) right heel, albuterol inhaler given again (from 3/10)): 2/10 | Pain level (Human Patient with Pain; Ex.34 V(c) lower back pain over coccyx, initial 8/10, in series): no change in their back pain | Pain level (Human Patient with Pain; Ex.34 V(c) neck pain and stiffness, initial 5/10, in series): 2/10 | Pain level (Human Patient with Pain; Ex.34 V(e) sacroiliac strain, initial 8.5/10, in series): 4/10 | Pain level (Human Patient with Pain; Ex.34 V(f) midback pain, initial 7/10): without any change | Pain level (Human Patient with Pain; Ex.34 V(h) possible lower lumbar compression fracture, initial 5/10, in series): 6/10 | EFFECT ON PAIN LEVEL/% change (Human Patient with Pain; [1]): 2/10 | % Change in Pain level, total over successive treatments (marked *) (Human Patient with Pain; [2]): 53% to | % Change in Pain level (Human Patient with Pain; [3]): 20% | EFFECT ON PAIN LEVEL/% change (Human Patient with Pain; [3]): From 5/10 to 4/10 | % Change in Pain level (Human Patient with Pain; Table 7: sacroiliac strain, bilateral sacroilitis, listed as albuterol): 0%

CC(C)NCC(O)COc1ccc(CC(N)=O)cc1 (centres unmarked) [Atenolol]
Pain level (Human Patient with Pain; Ex.10 thoracalgia, left side, initial 5/10, in series): pain completely disappeared | Pain level (Human Patient with Pain; Ex.10 thoracalgia, right side, initial 5/10, in series): 2/10 | Pain level (Human Patient with Pain; Ex.4 hammer toes, halux valgus and rigiditus, initial 7/10, in series): no effect | Pain level (Human Patient with Pain; Ex.5 hip, trochanteric bursitis, initial 8/10, in series): 6/10 | Pain level (Human Patient with Pain; Ex.5 knee osteoarthritis, initial 8/10): 5/10 | Pain level (Human Patient with Pain; Ex.8 hip, trochanteric bursitis, initial 8/10, in series): no change | % Change in Pain level (Human Patient with Pain; Table 7: osteoarthritis): 37.5% | EFFECT ON PAIN LEVEL/% change (Human Patient with Pain; Table 7: osteoarthritis): From 8/10 to 5/10 | % Change in Pain level (Human Patient with Pain; [2]): 0% | EFFECT ON PAIN LEVEL/% change (Human Patient with Pain; [2]): No change | % Change in Pain level (Human Patient with Pain; Table 7: trochanteric bursitis): 25% | EFFECT ON PAIN LEVEL/% change (Human Patient with Pain; Table 7: trochanteric bursitis): From 8/10 to 6/10

COc1cc(CNC(=O)CCCC/C=C/C(C)C)ccc1O [capsaicin]
Overall analgesic effect (general statement) (Human Patient with Pain; across patients): did not have much of an effect except in a few patients

OCC(O)CO [GP, Glycerin]
Observation (pain) (Human Patient with Pain; Table 4, components marked +, complaint and initial level in the same row, plus anhydrous lanolin): Pain disappeared | Observation (pain) (Human Patient with Pain; Table 5): 10 No effect on knee | Observation (pain) (Human Patient with Pain; Table 5, listed as Glycerin pure): 1/10 | % Change in Pain level (Human Patient with Pain; [4]): 0% | EFFECT ON PAIN LEVEL/% change (Human Patient with Pain; [4]): No Change, then from 8/10 | % Change in Pain level (Human Patient with Pain; Table 7: osteoarthritis): 16.7% | % Change in Pain level (Human Patient with Pain; Table 7: tarsal tunnel, carpal tunnel syndrome, wrist pain): 0%

Tween 20
Observation: mobility (Human Patient with Pain): Increased mobility

CC(O)CO (centres unmarked) [Propylene glycol]
Observation (pain) (Human Patient with Pain; Table 5): No effect

Clc1cccc(Cl)c1N=C1NCCN1 [Clonidine]
Pain level (Human Patient with Pain; Ex.11 right arm neuroma with phantom limb, initial 4/10, in series): pain completely disappeared | Pain level (Human Patient with Pain; Ex.17 left rotator cuff impingement and bursitis, initial printed 5110): Pain disappeared | Pain level (Human Patient with Pain; Ex.20 ischial gluteal bursitis, initial 9/10, clonidine then nitropaste): 5/10 | Pain level (Human Patient with Pain; Ex.20 right knee osteoarthritis, from 9/10, clonidine then nitropaste): 8/10 | Pain level (Human Patient with Pain; Ex.20 right wrist carpal tunnel, initial 9/10, nitropaste then clonidine paste): 3/10 | Pain level (Human Patient with Pain; Ex.20 trochanteric bursitis, initial 9/10, clonidine then nitropaste): 5/10 | Pain level (Human Patient with Pain; Ex.21 bilateral sacroiliac strain, initial 9/10, in series): 5/10 | Pain level (Human Patient with Pain; Ex.22 bilateral rotator cuff tear, initial printed 8.5410): no effect | Pain level (Human Patient with Pain; Ex.23 thoracalgia, initial 8/10): no effect | Pain level (Human Patient with Pain; Ex.24 left patellofemoral syndrome, initial 7/10, in series): 3/10 | Pain level (Human Patient with Pain; Ex.25 left trochanteric bursitis, initial 7/10): disappeared | Pain level (Human Patient with Pain; Ex.25 right thumb osteoarthritis, initial 2/10, in series): stayed the same | Pain level (Human Patient with Pain; Ex.26 L3 vertebral compression fracture, initial 6/10, in series): 4/10 | Pain level (Human Patient with Pain; Ex.27 neck stiffness and pain, radiculopathy, initial about 6/10): pain disappeared | Head rotation to left (Human Patient with Pain; [5]): 70 degrees | Head rotation to right (Human Patient with Pain; [5]): 75 degrees | Pain level (Human Patient with Pain; Ex.28 left knee, initial 6/10, nitrobid then clonidine): pain also disappeared | Pain level (Human Patient with Pain; Ex.28 right knee osteoarthritis/patellofemoral syndrome, initial 6/10, clonidine then nitrobid): 3/10 | Pain level (Human Patient with Pain; Ex.30 diabetic lower extremity neuropathy, initial 7/10, in series): 5/10 | Pain Level, CD (Human Patient with Pain; Table 1 part II: after clonidine paste (first step), listed as CD): 3/10 and 7/10 and 6/10 | % Change in Pain level (Human Patient with Pain; [6]): 33% | EFFECT ON PAIN LEVEL/% change (Human Patient with Pain; [6]): From 6/10 to 4/10, No | % Change in Pain level, total over successive treatments (marked *) (Human Patient with Pain; Table 7: migraine and tension headache): *100% | EFFECT ON PAIN LEVEL/% change (Human Patient with Pain; Table 7: migraine, tension headache, cluster headache, headache): 0/10 | % Change in Pain level (Human Patient with Pain; [1]): 100% | EFFECT ON PAIN LEVEL/% change (Human Patient with Pain; [1]): From 6/10 to 0/10 | % Change in Pain level, total over successive treatments (marked *) (Human Patient with Pain; Table 7: osteoarthritis): *100%; | EFFECT ON PAIN LEVEL/% change (Human Patient with Pain; Table 7: osteoarthritis): No change and From 6/10 to 3/10 and 6/10 to 0/10 | % Change in Pain level (Human Patient with Pain; [7]): 40% | % Change in Pain level, total over successive treatments (marked *) (Human Patient with Pain; [7]): 57% | EFFECT ON PAIN LEVEL/% change (Human Patient with Pain; [7]): From 5/10 to 3/10 | EFFECT ON PAIN LEVEL/% change (Human Patient with Pain; Table 7: rotator cuff tendinopathy, rotator cuff tear, shoulder pain, listed as Clonidine paste): From 3/10 to 0/10 | % Change in Pain level (Human Patient with Pain; Table 7: rotator cuff tendinopathy, tear, shoulder pain, listed as Clonidine paste): 100% | EFFECT ON PAIN LEVEL/% change (Human Patient with Pain; Table 7: trochanteric bursitis): From 7/10 to 0/10 | Mobility / stiffness after application (Human Patient with Pain): improved flexibility | Mobility / stiffness after application (Human Patient with Pain; listed as Clonidine paste): improved mobility and range of motion | Duration of pain relief (Human Patient with Pain; patient of the example cited): 6 h | Persistence of pain relief at follow-up (Human Patient with Pain; patient of the example cited): A day later patient reported that their knee pain was still reduced | Time to decrease of pain (Human Patient with Pain; patient of the example cited): 5 min | Time to decrease of pain (Human Patient with Pain; patient of the example cited, listed as clonidine): ≤ 10 min

Tween 80
Observation: mobility (Human Patient with Pain): More mobility | Systemic effects noted (alertness, appetite, breathing, congestion, sweating, secretions) (Human Patient): improvement in breathing

CCCCCCCCCCCCOS(=O)(=O)[O-].[Na+] [SDS 20%, Sodium dodecyl sulfate]
Systemic effects noted (alertness, appetite, breathing, congestion, sweating, secretions) (Human Patient; listed as SDS, sulfate): improvement in breathing

Triton x100
Observation: mobility (Human Patient with Pain): Slight increase in mobility
